Assay results taken from patent US20250109127A1, “METHODS OF USE OF PHENOXYPROPYLAMINE COMPOUNDS TO TREAT DEPRESSION” (Minerva Neurosciences, Inc., priority 2013, published 2025).
Several values for one entry are separate records, joined by “and”; a condition that tells them apart may be missing. Equal values may be shown once.

Test system: 5-HT release in the rat prefrontal cortex
Experiment: Microdialysis: 5-HT release in prefrontal cortex after I.P. administration
Format: in vivo
Settings: for 5-HT in dialysate, MEAN / 5-HT in dialysate, individual animals: Citalopram 10 mg/kg I.P.
Experimental: The aim of the study was to evaluate, using microdialysis, the effects of an intraperitoneal (I.P.) administration in rats of three different doses of SON-117 on dopamine and its metabolites, serotonin and its metabolite (5-HIAA), and norepinephrine levels in prefrontal cortex.
Thirty-two adult male Wistar rats were used for the whole study (4 groups of eight animals planned for the study, Table 1).
Surgery was performed on rats weighing about 300 g at the beginning of the experiments. Rats were anaesthetized with Ketamine (50 mg/kg) & Xylazine (15 mg/kg) by intramuscular administration. The animals were placed in a stereotaxic apparatus in the flat-skull position at a constant setting of −3.3 mm between ear bars and the incisor bar. The animals were treated with a local anesthesic (xylocaine 1%, Astra Zeneca) and an analgesic (Temgesic, from Schering Plough, 0.05 mg/kg, s.c.). A rostrocaudal midline incision was made with a lancet to expose the dorsal skull surface. The “stereotaxic zero” was defined by the Bregma in accordance with Paxinos and Watson's atlas (1986). A hole was drilled in the skull with a drill and the meninges were pierced with a sterile needle to implant a CMA12 guide cannula which later received the dialysis probe.
Coordinates used for implanting guide cannula in prefrontal cortex from Bregma were anteroposterior 3.7 mm, mediolateral 0.8 mm, and dorsoventral −2 mm (top of the probe was at −5 mm). The guide cannula was fixed to the skull with two stainless steel screws (1.88 mm outside diameter) anchored. An application of dental cement was added. A plastic collar allowed each animal to be tethered to a Swivel assembly of the CMA 120 awake animal system. Following surgery, rats were kept in individual cages and allowed to recover for a minimum of 3-5 days before the experimentation. The rats were handled and put in plastic bowl for 10 min at least every day to habituate the animals to their new environment for the dialysis. An I.P. administration with saline was also performed every day.
Dialysis probes (CMA12/3 mm, membrane, 20 kD cut-off, Carnegie Medicine, Stockholm, Sweden), were carefully washed before inserting into the guide cannula. The wash was performed with the artificial cerebrospinal fluid (aCSF) medium (NaCl 147 mM, KCl 2.7 mM, CaCl2 1.2 mM, MgCl2 0.85 mM) at room temperature. The dialysis system was then equilibrated at 20° C. at a perfusion rate of 1 μl/min with a Carnegie pump (CMA100). All catheters (FEP tubing, internal volume of 1.2 μl/10 cm, and tubing adaptors) used for microdialysis were treated in the same conditions.
The probes duly prepared were inserted into the guide cannula and the CMA120 Swivel assembly secured to the animal using a plastic collar. Flow through the dialysis probe with aCSF was maintained at a rate of 1 μl/min during the whole experimentation. The first four fractions (corresponding to 2 hours) were discarded to avoid the effects of parenchymal disturbance and to ensure that an approximate steady-state level was reached. Fractions were then collected over a period of 8.5 h during which time the animals remained quiet. The dialysates were automatically collected with an autosampler (microfraction collector CMA 140, Carnegie Medicin) and stored at −80° C. until analysis. […] Perfusion was then maintained for 7 hours with aCSF. The dialysates (30 μl) were collected into 300 μl vials, transferred into dry ice and then kept frozen (−80° C.) until analysis. Frozen samples were shipped to a partner for analysis. At the end of the microdialysis study, a PBS with colored ink was perfused through the probe in order to visualize the dialyzed area.
Catecholamine assay: Concentrations of dopamine, DOPAC, HVA, 5-HIAA, 5-HT, and norepinephrin were determined for each sample by HPLC coupled with electrochemical detection. […]

With `CN(C)CCCC1(c2ccc(F)cc2)OCc2cc(C#N)ccc21` (centres unmarked) [Citalopram, citalopram, reference compound] the “5-HT in dialysate, MEAN” value (T0-T30 min) was 85.23 % of respective basal, the “5-HT in dialysate, MEAN” value (T30-T1 h) was 218.92 % of respective basal and the “5-HT in dialysate, individual animals” value (T30-T1 h) was 203.59 % of respective basal and 157.98 % of respective basal and 133.67 % of respective basal and 139.45 % of respective basal and 219.64 % of respective basal and 344.10 % of respective basal and 285.92 % of respective basal and 267.00 % of respective basal. For the same molecule, the “5-HT in dialysate, MEAN” value (T1 h 30-T2 h) was 170.67 % of respective basal, the “5-HT in dialysate, individual animals” value (T1 h 30-T2 h) was 103.23 % of respective basal and 101.96 % of respective basal and 153.81 % of respective basal and 83.91 % of respective basal and 207.6 % of respective basal and 351.79 % of respective basal and 164.94 % of respective basal and 198.14 % of respective basal and the “5-HT in dialysate, MEAN” value (T1 h-T1 h 30) was 171.48 % of respective basal. For the same molecule, the “5-HT in dialysate, individual animals” value (T1 h-T1 h 30) was 162.56 % of respective basal and 151.29 % of respective basal and 167.46 % of respective basal and 128.56 % of respective basal and 232.85 % of respective basal and 235.03 % of respective basal and 158.66 % of respective basal and 135.42 % of respective basal, the “5-HT in dialysate, MEAN” value (T2 h 30-T3 h) was 116.57 % of respective basal and the “5-HT in dialysate, individual animals” value (T2 h 30-T3 h) was 109.55 % of respective basal and 38.11 % of respective basal and 79.68 % of respective basal and 57.89 % of respective basal and 152.73 % of respective basal and 299.86 % of respective basal and 89.94 % of respective basal and 104.76 % of respective basal. For the same molecule, the “5-HT in dialysate, MEAN” value (T2 h-T2 h 30) was 138.70 % of respective basal, the “5-HT in dialysate, individual animals” value (T2 h-T2 h 30) was 97.34 % of respective basal and 43.80 % of respective basal and 100.91 % of respective basal and 83.82 % of respective basal and 153.02 % of respective basal and 315.50 % of respective basal and 215.03 % of respective basal and 100.89 % of respective basal and the “5-HT in dialysate, MEAN” value (T3 h 30-T4 h) was 126.49 % of respective basal. For the same molecule, the “5-HT in dialysate, individual animals” value (T3 h 30-T4 h) was 93.89 % of respective basal and 20.30 % of respective basal and 84.02 % of respective basal and 59.96 % of respective basal and 97.06 % of respective basal and 476.98 % of respective basal and 67.07 % of respective basal and 112.62 % of respective basal, the “5-HT in dialysate, MEAN” value (T3 h-T3 h 30) was 136.30 % of respective basal and the “5-HT in dialysate, individual animals” value (T3 h-T3 h 30) was 88.23 % of respective basal and 47.91 % of respective basal and 85.22 % of respective basal and 48.54 % of respective basal and 108.35 % of respective basal and 516.29 % of respective basal and 70.00 % of respective basal and 125.89 % of respective basal. For the same molecule, the “5-HT in dialysate, MEAN” value (T4 h 30-T5 h) was 90.86 % of respective basal, the “5-HT in dialysate, individual animals” value (T4 h 30-T5 h) was 89.09 % of respective basal and 13.90 % of respective basal and 77.20 % of respective basal and 44.62 % of respective basal and 120.70 % of respective basal and 212.73 % of respective basal and 55.57 % of respective basal and 113.09 % of respective basal and the “5-HT in dialysate, MEAN” value (T4 h-T4 h 30) was 97.87 % of respective basal. For the same molecule, the “5-HT in dialysate, individual animals” value (T4 h-T4 h 30) was 128.06 % of respective basal and 25.07 % of respective basal and 73.75 % of respective basal and 50.85 % of respective basal and 85.54 % of respective basal and 261.90 % of respective basal and 76.87 % of respective basal and 80.93 % of respective basal, the “5-HT in dialysate, MEAN” value (T5 h 30-T6 h) was 75.87 % of respective basal and the “5-HT in dialysate, individual animals” value (T5 h 30-T6 h) was 78.66 % of respective basal and 7.95 % of respective basal and 69.20 % of respective basal and 42.04 % of respective basal and 72.98 % of respective basal and 142.95 % of respective basal and 74.38 % of respective basal and 118.79 % of respective basal. For the same molecule, the “5-HT in dialysate, MEAN” value (T5 h-T5 h 30) was 92.05 % of respective basal, the “5-HT in dialysate, individual animals” value (T5 h-T5 h 30) was 77.74 % of respective basal and 11.81 % of respective basal and 73.01 % of respective basal and 50.89 % of respective basal and 87.24 % of respective basal and 227.76 % of respective basal and 54.20 % of respective basal and 153.73 % of respective basal and the “5-HT in dialysate, MEAN” value (T6 h 30-T7 h) was 76.63 % of respective basal. For the same molecule, the “5-HT in dialysate, individual animals” value (T6 h 30-T7 h) was 87.93 % of respective basal and 11.23 % of respective basal and 60.60 % of respective basal and 41.05 % of respective basal, the “5-HT in dialysate, MEAN” value (T6 h-T6 h 30) was 79.25 % of respective basal and the “5-HT in dialysate, individual animals” value (T6 h-T6 h 30) was 70.23 % of respective basal and 12.51 % of respective basal and 74.22 % of respective basal and 42.28 % of respective basal and 81.01 % of respective basal and 173.04 % of respective basal and 63.01 % of respective basal and 117.68 % of respective basal. For the same molecule, the “5-HT in dialysate, MEAN” value (T-30 min-T0 (pre-dose)) was 87.59 % of respective basal, the “5-HT in dialysate, MEAN” value (T-1 h 30-T-1 h (pre-dose)) was 108.45 % of respective basal and the “5-HT in dialysate, MEAN” value (T-1 h-T-30 min (pre-dose)) was 105.84 % of respective basal. For the same molecule, the “5-HT concentrations in prefrontal cortex, significant increase” value (citalopram 10 mg/kg IP, from 1 h to 2 h) was 219% and the “5-HT release, maximum increase observed” value (citalopram 10 mg/kg, at 1 h) was 218%.
